Where a name gives a salt, the structure may show the parent alone. Read-outs that look alike come from different tables or passages of the source.
How the values were obtained:
[1] = Diffusivity by Pulsed Field Gradient Nuclear Magnetic Resonance; format: physicochemical; details: 37° C.
Protocol: Goserelin acetate and vitamin B12 were incorporated into cylindrical polymer matrices as described in Example 2, but using only PEGD 24000 g/mol. Goserelin acetate is a peptide having the sequence Pyr-His-Trp-Ser-Tyr-D-Ser(tBu)-Leu-Arg-Pro-Azagly-NH2 acetate salt. Its molecular weight is 1269 g/mol and it has a water solubility of 20 mg/mL at 25° C. […] The diffusivities of these two compounds was determined at 37° C. using Pulsed Field Gradient Nuclear Magnetic Resonance. The measured diffusivities were 2.8±0.1 and 2.6±0.1 (10^−6) cm^2/s for vitamin B12 and goserelin, respectively. These diffusivities are essentially the same. In vitro release experiments on these cylinders were performed as described in Example 2. […] As the diffusivities of the two compounds are very similar, and degradation of the polymer occurs slowly, release cannot be controlled by either diffusion or polymer degradation. The higher release rate must therefore be a result of the higher aqueous solubility of the goserelin acetate. Thus, release is driven by the dissolution rate of the compound in the aqueous regions of the polymer matrix.

[2] = Effect of cross-linking UV irradiation on vitamin B12 absorbance; format: physicochemical; details: 10 mW/cm^2 long-wave UV 5 minutes, with photo-initiator, in ethyl acetate or non-acrylated polymer solution
Protocol: As vitamin B12 absorbs within the UV region, it was important to determine whether the cross-linking conditions affected the vitamin B12. The vitamin B12 was therefore suspended in ethyl acetate in the presence of the photo-initiator, and in a non-acrylated polymer solution also containing the photo-initiator, and subjected to 10 mW/cm^2 long-wave UV irradiation for 5 minutes. The vitamin B12 was then filtered from solution, dried, and dissolved in varying concentrations and their absorbance measured and compared to that of solutions prepared from the as-received vitamin B12.

[3] = cited from earlier work
[4] = In vitro release of goserelin acetate and vitamin B12 from ASCP 2700 / PEGD 24000 cylinders; format: physicochemical; details: 90% ASCP 2700 and 10% PEGD 24000 cylinders, loading 1 w/w %
Text: Acrylated star-poly(ε-caprolactone-co-D,L-lactide) (ASCP) of molecular weight 2700 g/mol was co-dissolved in tetrahydrofuran with poly(ethylene glycol)diacrylate (PEGD) of molecular weight 4000 g/mol or 24000 g/mol. The total polymer concentration was 1 g/mL THF. The mass ratio of PEGD:ASCP was 1:9 (10% PEGD). In this solution was suspended vitamin B12 particles that had been ground and sieved to less than 100 μm in diameter. The total mass of vitamin B12 to polymer was 1:99 (1% vitamin B12). 1.5 w/w % of 2,2-dimethoxy-2-phenyl-acetophenone (DMPA) photoinitiator was also included. The suspension was injected into a 1.8 mm diameter glass tube to a length of 34 cm and sealed with parafilm. […] The concentration of vitamin B12 in the release samples was measured with a Spectromax microplate spectrophotometer. 0.250 mL of vitamin B12 sample per well was added into a 96 well microplate, and the absorbance of these samples was read at 381 nm. […]
Goserelin acetate and vitamin B12 were incorporated into cylindrical polymer matrices as described in Example 2, but using only PEGD 24000 g/mol. […] The diffusivities of these two compounds was determined at 37° C. using Pulsed Field Gradient Nuclear Magnetic Resonance. The measured diffusivities were 2.8±0.1 and 2.6±0.1 (10^−6) cm^2/s for vitamin B12 and goserelin, respectively. […]

change in the absorbance of the vitamin B12 due to cross-linking conditions [2]	Compound	diffusivity [1]	water solubility ([3]; temperature not given) [mg/mL]	release rate compared with vitamin B12 (in words) [4]	water solubility ([3]; 25° C.) [mg/mL]
no significant change	vitamin B12	2.8±0.1 (10^−6) cm^2/s	12.5		
	CC(C)C[C@H](NC(=O)[C@@H](COC(C)(C)C)NC(=O)[C@H](Cc1ccc(O)cc1)NC(=O)[C@H](CO)NC(=O)[C@H](Cc1c[nH]c2ccccc12)NC(=O)[C@H](Cc1cnc[nH]1)NC(=O)[C@@H]1CCC(=O)N1)C(=O)N[C@@H](CCCNC(=N)N)C(=O)N1CCC[C@H]1C(=O)NNC(N)=O [Goserelin acetate, Pyr-His-Trp-Ser-Tyr-D-Ser(tBu)-Leu-Arg-Pro-Azagly-NH2 acetate salt]	2.6±0.1 (10^−6) cm^2/s		appreciably faster rate	20

From patent US20060233857A1, “Degradable elastomeric network” (priority 2005, published 2006)
